Literature values in patent US6150391A, “Diazabicyclo-octane derivatives as 5-HT receptor ligands” (Merck Sharp & Dohme Ltd., priority 1996, dated 2000).

Tests used:
[1] = test system: human 5-HT1D.sbsb.α and 5-HT1D.sbsb.β receptor subtypes; details: cf WO-A-91/17174, Table 1
[2] = therapeutic doses

## CNS(=O)(=O)Cc1ccc2[nH]cc(CCN(C)C)c2c1 [sumatriptan]
[1]
  discrimination between the human 5-HT1D.sbsb.α and 5-HT1D.sbsb.β receptor subtypes: barely discriminates
[2]
  adverse events on administration to humans: certain adverse cardiovascular events
